Measured values reported in ChEMBL document CHEMBL3046293, “Fungicidal Activities of -Methoxyphenylacetic Acid Derivatives” (2002).

What was measured:
Assay type in all cases: functional
[1] = test system: Pseudoperonospora cubensis; assay: Fungicidal activity against Pseudoperonospora cubensis assessed as cucumber downy mildew disease control at 31.3 ppm foliar application 24 hr before inoculation onto the adaxial(treated) surface of leaf by preventive manner
[2] = test system: Pseudoperonospora cubensis; assay: Fungicidal activity against Pseudoperonospora cubensis assessed as cucumber downy mildew disease control at 7.8 ppm foliar application 24 hr after inoculation by curative manner
[3] = test system: Pseudoperonospora cubensis; assay: Fungicidal activity against Pseudoperonospora cubensis assessed as cucumber downy mildew disease control at 2 ppm foliar application 24 hr before inoculation onto the adaxial(treated) surface of leaf by preventive manner
[4] = test system: Pseudoperonospora cubensis; assay: Fungicidal activity against Pseudoperonospora cubensis assessed as cucumber downy mildew disease control at 125 ppm foliar application 24 hr before inoculation onto the adaxial(treated) surface of leaf by preventive manner
[5] = test system: Pseudoperonospora cubensis; assay: Fungicidal activity against Pseudoperonospora cubensis assessed as cucumber downy mildew disease control at 125 ppm foliar application 24 hr after inoculation by curative manner
[6] = test system: Pseudoperonospora cubensis; assay: Fungicidal activity against Pseudoperonospora cubensis assessed as cucumber downy mildew disease control at 0.5 ppm foliar application 24 hr before inoculation onto the abaxial(treated) surface of leaf by preventive manner
[7] = test system: Pseudoperonospora cubensis; assay: Fungicidal activity against Pseudoperonospora cubensis assessed as cucumber downy mildew disease control at 125 ppm foliar application 24 hr before inoculation onto the abaxial(treated) surface of leaf by preventive manner
[8] = test system: Pseudoperonospora cubensis; assay: Fungicidal activity against Pseudoperonospora cubensis assessed as cucumber downy mildew disease control at 31.3 ppm foliar application 24 hr after inoculation by curative manner
[9] = test system: Pseudoperonospora cubensis; assay: Fungicidal activity against Pseudoperonospora cubensis assessed as cucumber downy mildew disease control at 7.8 ppm foliar application 24 hr before inoculation onto the abaxial(treated) surface of leaf by preventive manner
[10] = test system: Pseudoperonospora cubensis; assay: Fungicidal activity against Pseudoperonospora cubensis assessed as cucumber downy mildew disease control at 0.5 ppm foliar application 24 hr after inoculation by curative manner
[11] = test system: Pseudoperonospora cubensis; assay: Fungicidal activity against Pseudoperonospora cubensis assessed as cucumber downy mildew disease control at 2 ppm foliar application 24 hr after inoculation by curative manner
[12] = test system: Pseudoperonospora cubensis; assay: Fungicidal activity against Pseudoperonospora cubensis assessed as cucumber downy mildew disease control at 31.3 ppm foliar application 24 hr before inoculation onto the abaxial(treated) surface of leaf by preventive manner
[13] = test system: Pseudoperonospora cubensis; assay: Fungicidal activity against Pseudoperonospora cubensis assessed as cucumber downy mildew disease control at 0.5 ppm foliar application 24 hr before inoculation onto the adaxial(treated) surface of leaf by preventive manner
[14] = test system: Pseudoperonospora cubensis; assay: Fungicidal activity against Pseudoperonospora cubensis assessed as cucumber downy mildew disease control at 2 ppm foliar application 24 hr before inoculation onto the abaxial(treated) surface of leaf by preventive manner
[15] = test system: Pseudoperonospora cubensis; assay: Fungicidal activity against Pseudoperonospora cubensis assessed as cucumber downy mildew disease control at 7.8 ppm foliar application 24 hr before inoculation onto the adaxial(treated) surface of leaf by preventive manner
Blumeria graminis [16] = assay: Fungicidal activity against Blumeria graminis f. sp. tritici assessed as wheat powdery mildew disease control at 2 ppm foliar application for 24 hr before inoculation by preventive manner
Blumeria graminis [17] = assay: Fungicidal activity against Blumeria graminis f. sp. tritici assessed as wheat powdery mildew disease control at 2 ppm foliar application for 24 hr after inoculation by curative manner
Blumeria graminis [18] = assay: Fungicidal activity against Blumeria graminis f. sp. tritici assessed as wheat powdery mildew disease control at 7.8 ppm foliar application for 24 hr after inoculation by curative manner
Blumeria graminis [19] = assay: Fungicidal activity against Blumeria graminis f. sp. tritici assessed as wheat powdery mildew disease control at 31.3 ppm foliar application for 24 hr before inoculation by preventive manner
Blumeria graminis [20] = assay: Fungicidal activity against Blumeria graminis f. sp. tritici assessed as wheat powdery mildew disease control at 0.5 ppm foliar application for 24 hr before inoculation by preventive manner
Blumeria graminis [21] = assay: Fungicidal activity against Blumeria graminis f. sp. tritici assessed as wheat powdery mildew disease control at 7.8 ppm foliar application for 24 hr before inoculation by preventive manner
Blumeria graminis [22] = assay: Fungicidal activity against Blumeria graminis f. sp. tritici assessed as wheat powdery mildew disease control at 0.5 ppm foliar application for 24 hr after inoculation by curative manner
Pyricularia oryzae [23] = assay: Fungicidal activity against Magnaporthe oryzae Cav. race 003 assessed as rice blast disease control at 31.3 ppm treated 24 hr before inoculation by preventive manner
Podosphaera fuliginea [24] = assay: Fungicidal activity against Podosphaera fuliginea assessed as cucumber powdery mildew control at 0.125 ppm foliar application 24 hr after inoculation by curative manner
Pyricularia oryzae [25] = assay: Fungicidal activity against Magnaporthe oryzae Cav. race 003 assessed as rice blast disease control at 125 ppm foliar application for 24 hr before inoculation by preventive manner
Botrytis cinerea [26] = assay: Fungicidal activity against Botryotinia fuckeliana assessed as cucumber gray mold disease control at 125 ppm foliar application 24 hr before inoculation by preventive manner
Thanatephorus cucumeris [27] = assay: Fungicidal activity against Thanatephorus cucumeris assessed as rice sheath blight disease control at 7.8 ppm foliar application for 24 hr after inoculation by curative manner
Botrytis cinerea [28] = assay: Fungicidal activity against Botryotinia fuckeliana assessed as cucumber gray mold disease control at 7.8 ppm foliar application 24 hr after inoculation by curative manner
Thanatephorus cucumeris [29] = assay: Fungicidal activity against Thanatephorus cucumeris assessed as rice sheath blight disease control at 2 ppm foliar application for 24 hr after inoculation by curative manner
Botrytis cinerea [30] = assay: Fungicidal activity against Botryotinia fuckeliana assessed as cucumber gray mold disease control at 7.8 ppm treated 24 hr before inoculation by preventive manner
Podosphaera fuliginea [31] = assay: Fungicidal activity against Podosphaera fuliginea assessed as cucumber powdery mildew control at 7.8 ppm foliar application 24 hr after inoculation by curative manner
Podosphaera fuliginea [32] = assay: Fungicidal activity against Podosphaera fuliginea assessed as cucumber powdery mildew control at 7.8 ppm foliar application 24 hr before inoculation by preventive manner
Pyricularia oryzae [33] = assay: Fungicidal activity against Magnaporthe oryzae Cav. race 003 assessed as rice blast disease control at 2 ppm foliar application for 24 hr before inoculation by preventive manner
Thanatephorus cucumeris [34] = assay: Fungicidal activity against Thanatephorus cucumeris assessed as rice sheath blight disease control at 31.3 ppm foliar application for 24 hr before inoculation by preventive manner
Podosphaera fuliginea [35] = assay: Fungicidal activity against Podosphaera fuliginea assessed as cucumber powdery mildew control at 0.5 ppm foliar application 24 hr after inoculation by curative manner
Thanatephorus cucumeris [36] = assay: Fungicidal activity against Thanatephorus cucumeris assessed as rice sheath blight disease control at 2 ppm foliar application for 24 hr before inoculation by preventive manner
Thanatephorus cucumeris [37] = assay: Fungicidal activity against Thanatephorus cucumeris assessed as rice sheath blight disease control at 31.3 ppm foliar application for 24 hr after inoculation by curative manner
Podosphaera fuliginea [38] = assay: Fungicidal activity against Podosphaera fuliginea assessed as cucumber powdery mildew control at 2 ppm foliar application 24 hr after inoculation by curative manner
Podosphaera fuliginea [39] = assay: Fungicidal activity against Podosphaera fuliginea assessed as cucumber powdery mildew control at 2 ppm foliar application 24 hr before inoculation by preventive manner
Thanatephorus cucumeris [40] = assay: Fungicidal activity against Thanatephorus cucumeris assessed as rice sheath blight disease control at 125 ppm foliar application for 24 hr before inoculation by preventive manner
Botrytis cinerea [41] = assay: Fungicidal activity against Botryotinia fuckeliana assessed as cucumber gray mold disease control at 31.3 ppm foliar application 24 hr before inoculation by preventive manner
Podosphaera fuliginea [42] = assay: Fungicidal activity against Podosphaera fuliginea assessed as cucumber powdery mildew control at 0.125 ppm foliar application 24 hr before inoculation by preventive manner
Thanatephorus cucumeris [43] = assay: Fungicidal activity against Thanatephorus cucumeris assessed as rice sheath blight disease control at 125 ppm foliar application for 24 hr after inoculation by curative manner
Pyricularia oryzae [44] = assay: Fungicidal activity against Magnaporthe oryzae Cav. race 003 assessed as rice blast disease control at 31.3 ppm foliar application for 24 hr before inoculation by preventive manner
Botrytis cinerea [45] = assay: Fungicidal activity against Botryotinia fuckeliana assessed as cucumber gray mold disease control at 7.8 ppm foliar application 24 hr before inoculation by preventive manner
Blumeria graminis [46] = assay: Fungicidal activity against Blumeria graminis f. sp. tritici assessed as wheat powdery mildew disease control at 125 ppm foliar application for 24 hr before inoculation by preventive manner
Podosphaera fuliginea [47] = assay: Fungicidal activity against Podosphaera fuliginea assessed as cucumber powdery mildew disease control at 7.8 ppm treated 24 hr before inoculation by preventive manner
Botrytis cinerea [48] = assay: Fungicidal activity against Botryotinia fuckeliana assessed as cucumber gray mold disease control at 2 ppm foliar application 24 hr before inoculation by preventive manner
Botrytis cinerea [49] = assay: Fungicidal activity against Botryotinia fuckeliana assessed as cucumber gray mold disease control at 31.3 ppm foliar application 24 hr after inoculation by curative manner
Podosphaera fuliginea [50] = assay: Fungicidal activity against Podosphaera fuliginea assessed as cucumber powdery mildew control at 0.5 ppm foliar application 24 hr before inoculation by preventive manner
Botrytis cinerea [51] = assay: Fungicidal activity against Botryotinia fuckeliana assessed as cucumber gray mold disease control at 2 ppm foliar application 24 hr after inoculation by curative manner
Blumeria graminis [52] = assay: Fungicidal activity against Blumeria graminis f. sp. tritici assessed as wheat powdery mildew disease control at 125 ppm foliar application for 24 hr after inoculation by curative manner
Botrytis cinerea [53] = assay: Fungicidal activity against Botryotinia fuckeliana assessed as cucumber gray mold disease control at 125 ppm foliar application 24 hr after inoculation by curative manner
Pyricularia oryzae [54] = assay: Fungicidal activity against Magnaporthe oryzae Cav. race 003 assessed as rice blast disease control at 7.8 ppm foliar application for 24 hr before inoculation by preventive manner
Thanatephorus cucumeris [55] = assay: Fungicidal activity against Thanatephorus cucumeris assessed as rice sheath blight disease control at 7.8 ppm foliar application for 24 hr before inoculation by preventive manner
Blumeria graminis [56] = assay: Fungicidal activity against Blumeria graminis f. sp. tritici assessed as wheat powdery mildew disease control at 31.3 ppm foliar application for 24 hr after inoculation by curative manner
Botrytis cinerea [57] = assay: Fungicidal activity against Botryotinia fuckeliana assessed as cucumber gray mold disease control at 125 ppm treated 24 hr before inoculation by preventive manner
Pyricularia oryzae [58] = assay: Fungicidal activity against Magnaporthe oryzae Cav. race 003 assessed as rice blast disease control at 125 ppm treated 24 hr before inoculation by preventive manner

## COC(=O)C(C)N(C(=O)Cc1ccccc1)c1c(C)cccc1C (stereo unspecified) [BENALAXYL]
[1]
  Activity: 70%
[2]
  Activity: 40%
[3]
  Activity: 20%
[4]
  Activity: 97%
[5]
  Activity: 80%
[6]
  Activity: 0%
[7]
  Activity: 97%
[8]
  Activity: 80%
[9]
  Activity: 40%
[10]
  Activity: 0%
[11]
  Activity: 10%
[12]
  Activity: 70%
[13]
  Activity: 0%
[14]
  Activity: 20%
[15]
  Activity: 20%

## CC(C)(C)C(=O)C(Oc1ccc(Cl)cc1)n1cncn1 (stereo unspecified) [TRIADIMEFON]
Blumeria graminis [16]
  Activity: 50%
Blumeria graminis [17]
  Activity: 90%
Blumeria graminis [18]
  Activity: 90%
Blumeria graminis [19]
  Activity: 97%
Blumeria graminis [20]
  Activity: 30%
Blumeria graminis [21]
  Activity: 97%
Blumeria graminis [22]
  Activity: 50%

## CNC(=O)C(OC)c1cccc(COc2cc(C)ccc2C)c1 (stereo unspecified)
Pyricularia oryzae [23]
  Activity: 90%
[1]
  Activity: 97%
[2]
  Activity: 0%
Podosphaera fuliginea [24]
  Activity: 30%
Pyricularia oryzae [25]
  Activity: 95%
Botrytis cinerea [26]
  Activity: 80%
Thanatephorus cucumeris [27]
  Activity: 30%
[3]
  Activity: 97%
Botrytis cinerea [28]
  Activity: 50%
[4]
  Activity: 97%
Thanatephorus cucumeris [29]
  Activity: 20%
Botrytis cinerea [30]
  Activity: 50%
[5]
  Activity: 30%
Blumeria graminis [16]
  Activity: 90%
Podosphaera fuliginea [31]
  Activity: 100%
Podosphaera fuliginea [32]
  Activity: 99%
Pyricularia oryzae [33]
  Activity: 30%
Thanatephorus cucumeris [34]
  Activity: 40%
Podosphaera fuliginea [35]
  Activity: 70%
Thanatephorus cucumeris [36]
  Activity: 10%
Thanatephorus cucumeris [37]
  Activity: 40%
Blumeria graminis [17]
  Activity: 90%
Podosphaera fuliginea [38]
  Activity: 100%
Podosphaera fuliginea [39]
  Activity: 90%
Thanatephorus cucumeris [40]
  Activity: 80%
[7]
  Activity: 70%
[8]
  Activity: 30%
Botrytis cinerea [41]
  Activity: 80%
Podosphaera fuliginea [42]
  Activity: 30%
[9]
  Activity: 70%
Thanatephorus cucumeris [43]
  Activity: 70%
Blumeria graminis [18]
  Activity: 90%
Pyricularia oryzae [44]
  Activity: 90%
[11]
  Activity: 0%
[12]
  Activity: 70%
Botrytis cinerea [45]
  Activity: 50%
Blumeria graminis [46]
  Activity: 97%
Podosphaera fuliginea [47]
  Activity: 90%
Botrytis cinerea [48]
  Activity: 50%
Blumeria graminis [19]
  Activity: 97%
Botrytis cinerea [49]
  Activity: 60%
[14]
  Activity: 50%
Podosphaera fuliginea [50]
  Activity: 70%
Botrytis cinerea [51]
  Activity: 20%
Blumeria graminis [52]
  Activity: 97%
Botrytis cinerea [53]
  Activity: 80%
Pyricularia oryzae [54]
  Activity: 70%
Blumeria graminis [21]
  Activity: 90%
Thanatephorus cucumeris [55]
  Activity: 20%
Blumeria graminis [56]
  Activity: 97%
[15]
  Activity: 97%

## CNC(=O)C(OC)c1cccc(COc2ccccc2Br)c1 (stereo unspecified)
Botrytis cinerea [57]
  Activity: 50%
Pyricularia oryzae [58]
  Activity: 90%
Podosphaera fuliginea [47]
  Activity: 90%
